target: T1, indoleamine 2,3-dioxygenase (IDO) (Homo sapiens, UniProt P14902); experiment: HeLa cell-based indoleamine 2,3-dioxygenase (IDO) assay (kynurenine production); conditions: HeLa cells, IFNγ 25 ng/mL, 48 hour incubation, absorbance at 480 nm
T1 construct: host or cells: HeLa cells stimulated with IFNγ (25 ng/mL)
Method: Assessment of inhibitor activity in HeLa cell-based indoleamine 2,3-dioxygenase (IDO) assay:
HeLa (ATCC® CCL-2) cells were obtained from the ATCC® and cultured in Dulbecco's Modified Eagle Medium supplemented with 4.5 g/L glucose, […] (#10-013-CV, Corning), 2 mM L-alanyl-L-glutamine dipeptide (#35050-061, Gibco), 100U/mL penicillin, 100 μg/mL streptomycin (#SV30010, HyClone) and 10% fetal bovine serum (#SH30071.03 HyClone). Cells were maintained in a humidified incubator at 37° C. in 5% CO2.
IDO activity was assessed as a function of kynurenine production as follows: HeLa cells were seeded in a 96-well culture plate at a density of 5,000 cells/well and allowed to equilibrate overnight. After 24 hours, the media was aspirated and replaced with media containing IFNγ (#285-IF/CF, R&D Systems) at a final concentration of 25 ng/mL. A serial dilution of each test compound was added to the cells in a total volume of 200 μL of culture medium. After a further 48 hour incubation, 170 μL of supernatant was transferred from each well to a fresh 96-well plate. 12.1 μL of 6.1N trichloroacetic acid (#T0699, Sigma-Aldrich) was added to each well and mixed, followed by incubation at 65° C. for 20 minutes to hydrolyze N-formylkynurenine, the product of indoleamine 2,3-dioxygenase, to kynurenine. The reaction mixture was then centrifuged for 10 mins at 500×g to sediment the precipitate. 100 μL of the supernatant was transferred from each well to afresh 96-well plate. 100 μl of 2% (w/v) p-dimethylaminobenzaldehyde (#15647-7, Sigma-Aldrich) in acetic acid (#A6283, Sigma-Aldrich) was added to each well mixed and incubated at room temperature for 20 mins. Kynurenine concentrations were determined by measuring absorbance at 480 nm and calibrating against an L-kynurenine (#K8625, Sigma-Aldrich) standard curve using a SPECTRAMAX® M2e microplate reader (Molecular Devices). The percentage activity at each inhibitor concentration was determined and IC50 values assessed using nonlinear regression.

T1 sequence (P14902 whole entry): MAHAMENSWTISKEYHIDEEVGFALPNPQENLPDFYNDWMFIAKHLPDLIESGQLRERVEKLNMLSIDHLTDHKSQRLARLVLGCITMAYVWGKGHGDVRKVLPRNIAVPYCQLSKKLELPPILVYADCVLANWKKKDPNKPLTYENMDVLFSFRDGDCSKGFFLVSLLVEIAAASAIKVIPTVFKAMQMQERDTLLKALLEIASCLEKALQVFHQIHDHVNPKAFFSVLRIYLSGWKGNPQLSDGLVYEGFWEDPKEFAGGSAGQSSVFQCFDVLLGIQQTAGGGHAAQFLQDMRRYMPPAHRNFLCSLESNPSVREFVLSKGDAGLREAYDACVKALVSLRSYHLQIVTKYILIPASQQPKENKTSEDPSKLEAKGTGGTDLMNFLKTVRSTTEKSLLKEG

IC50 [nM] | SMILES
68.1 | CC(c1nc2ccc(Cl)cc2[nH]1)C1CCC(c2ccnc3ncccc23)CC1 (mixture of isomers) [Example 34, (±)-Cis and trans-(4-(1-(6-chloro-1H-benzo[d]imidazol-2-yl)ethyl)cyclohexyl)-1,8-naphthyridine]
12.1 | COCC(c1nc2ccc(Cl)cc2[nH]1)[C@H]1CC[C@@H](c2ccnc3ccc(C(F)(F)F)cc32)CC1 (mixture of isomers) [Example 18, (±)-4-((cis)-4-(1-(6-chloro-1H-benzo[d]imidazol-2-yl)-2-methoxyethyl)cyclohexyl)-6-(trifluoromethyl)quinoline]
3.8 | COCC(c1nc2ccc(Cl)cc2[nH]1)[C@H]1CC[C@@H](c2ccnc3ccc(F)cc32)CC1 (mixture of isomers) [Example 19, (±)-4-((cis)-4-(1-(6-chloro-1H-benzo[d]imidazol-2-yl)-2-methoxyethyl)cyclohexyl)-6-fluoroquinoline]
5.8 | CCC(c1nc2ncc(Cl)cc2[nH]1)[C@H]1CC[C@H](Oc2ccnc3ccccc23)CC1 (mixture of isomers) [Example 20, (±)-4-(((trans)-4-(1-(6-chloro-1H-imidazo[4,5-b]pyridin-2-yl)-3-propyl)cyclohexyl)oxy)quinoline]
3.7 | CCC(c1nc2ncc(Cl)cc2[nH]1)[C@H]1CC[C@@H](c2ccnc3ccc(C(F)(F)F)cc32)CC1 (mixture of isomers) [Example 22, (±)-4-((cis)-4-(1-(6-chloro-1H-imidazo[4,5-b]pyridin-2-yl)propyl)cyclohexyl)-6-(trifluoromethyl)quinoline]
7.5 | CCC(c1nc2ncc(Cl)cc2[nH]1)[C@H]1CC[C@@H](c2ccnc(F)c2C)CC1 (mixture of isomers) [Example 24, (±)-6-chloro-2-(1-((cis)-4-(2-fluoro-3-methylpyridin-4-yl)cyclohexyl)-3-propyl)-1H-imidazo[4,5-b]pyridine]
44.9 | CCOCC(c1nc2ccc(Cl)cc2[nH]1)[C@H]1CC[C@@H](c2ccnc(F)c2C)CC1 (mixture of isomers) [Example 25, (±)-6-chloro-2-(2-ethoxy-1-((cis)-4-(2-fluoro-3-methylpyridin-4-yl)cyclohexyl)ethyl)-1H-benzo[d]imidazole]
7.5 | Fc1ccc2nccc(C3CCC(C(CC(F)(F)F)c4nc5ccc(Cl)cc5[nH]4)CC3)c2c1 (racemic) [Example 33, (±)-Cis and trans-4-(4-(1-(6-chloro-1H-benzo[d]imidazol-2-yl)-3,3,3-trifluoropropyl)cyclohexyl)-6-fluoroquinoline]
6 | CCC(c1nc2ncc(Cl)cc2[nH]1)[C@H]1CC[C@H](Oc2ccnc3ccccc23)CC1 (single isomer, unassigned) [Example 20-1]
4.5 | CCC(c1nc2ncc(Cl)cc2[nH]1)[C@H]1CC[C@H](Oc2ccnc3ccccc23)CC1 (single isomer, unassigned) [Example 20-2]
2 | CC[C@H](c1nc2ncc(Cl)cc2[nH]1)[C@H]1CC[C@@H](c2ccnc3ccc(F)cc32)CC1 (single isomer, unassigned) [Example 21-1, 4-(4-(1-(6-chloro-1H-imidazo[4,5-b]pyridin-2-yl)propyl)cyclohexyl)-6-fluoroquinoline]
1000 | CC[C@H](c1nc2ncc(Cl)cc2[nH]1)[C@H]1CC[C@@H](c2ccnc3ccc(F)cc32)CC1 (single isomer, unassigned) [Example 21-2, 4-(4-(1-(6-chloro-1H-imidazo[4,5-b]pyridin-2-yl)propyl)cyclohexyl)-6-fluoroquinoline]
5.1 | CC[C@H](c1nc2ncc(Cl)cc2[nH]1)[C@H]1CC[C@@H](c2ccnc3ccc(F)cc32)CC1 (single isomer, unassigned) [Example 21-3, 4-(4-(1-(6-chloro-1H-imidazo[4,5-b]pyridin-2-yl)propyl)cyclohexyl)-6-fluoroquinoline]
89.7 | CC[C@H](c1nc2ncc(Cl)cc2[nH]1)[C@H]1CC[C@@H](c2ccnc3ccc(F)cc32)CC1 (single isomer, unassigned) [Example 21-4, 4-(4-(1-(6-chloro-1H-imidazo[4,5-b]pyridin-2-yl)propyl)cyclohexyl)-6-fluoroquinoline]
2.4 | CCC(c1nc2ncc(Cl)cc2[nH]1)[C@H]1CC[C@@H](c2ccnc3ccc(C(F)(F)F)cc32)CC1 (single isomer, unassigned) [Example 22-1, 4-((cis)-4-(1-(6-chloro-1H-imidazo[4,5-b]pyridin-2-yl)propyl)cyclohexyl)-6-(trifluoromethyl)quinoline]
99.1 | CCC(c1nc2ncc(Cl)cc2[nH]1)[C@H]1CC[C@@H](c2ccnc3ccc(C(F)(F)F)cc32)CC1 (single isomer, unassigned) [Example 22-2, 4-((cis)-4-(1-(6-chloro-1H-imidazo[4,5-b]pyridin-2-yl)propyl)cyclohexyl)-6-(trifluoromethyl)quinoline]
998 | CCC(c1nc2ccc(Cl)cc2[nH]1)[C@H]1CC[C@@H](c2ccnc(F)c2C)CC1 (single isomer, unassigned) [Example 23-1, 6-chloro-2-(1-((cis)-4-(2-fluoro-3-methylpyridin-4-yl)cyclohexyl)-3-propyl)-1H-benzo[d]imidazole]
3.2 | CCC(c1nc2ccc(Cl)cc2[nH]1)[C@H]1CC[C@@H](c2ccnc(F)c2C)CC1 (single isomer, unassigned) [Example 23-2, 6-chloro-2-(1-((cis)-4-(2-fluoro-3-methylpyridin-4-yl)cyclohexyl)-3-propyl)-1H-benzo[d]imidazole]
375 | CCC(c1nc2ncc(Cl)cc2[nH]1)[C@H]1CC[C@@H](c2ccnc(F)c2C)CC1 (single isomer, unassigned) [Example 24-1, 6-chloro-2-(1-((cis)-4-(2-fluoro-3-methylpyridin-4-yl)cyclohexyl)-3-propyl)-1H-imidazo[4,5-b]pyridine]
2.7 | CCC(c1nc2ncc(Cl)cc2[nH]1)[C@H]1CC[C@@H](c2ccnc(F)c2C)CC1 (single isomer, unassigned) [Example 24-2, 6-chloro-2-(1-((cis)-4-(2-fluoro-3-methylpyridin-4-yl)cyclohexyl)-3-propyl)-1H-imidazo[4,5-b]pyridine]
10.2 | CCOCC(c1nc2ccc(Cl)cc2[nH]1)[C@H]1CC[C@@H](c2ccnc(F)c2C)CC1 (single isomer, unassigned) [Example 25-1, 6-chloro-2-(2-ethoxy-1-((cis)-4-(2-fluoro-3-methylpyridin-4-yl)cyclohexyl)ethyl)-1H-benzo[d]imidazole]
22.9 | CCOCC(c1nc2ccc(Cl)cc2[nH]1)[C@H]1CC[C@@H](c2ccnc(F)c2C)CC1 (single isomer, unassigned) [Example 25-2, 6-chloro-2-(2-ethoxy-1-((cis)-4-(2-fluoro-3-methylpyridin-4-yl)cyclohexyl)ethyl)-1H-benzo[d]imidazole]
14.3 | CC(c1nc2ccc(Cl)cc2[nH]1)C1CCC(c2ccnc3ncccc23)CC1 (single isomer, unassigned) [Example 35-2]
170 | C[C@H](c1nc2ccc(Cl)cc2[nH]1)[C@H]1CC[C@@H](c2ccnc(C(F)(F)F)c2)CC1 (single isomer, unassigned) [Example 39-1, 6-chloro-2-(1-(4-(2-(trifluoromethyl)pyridin-4-yl)cyclohexyl)ethyl)-1H-benzo[d]imidazole]
75.4 | C[C@H](c1nc2ccc(Cl)cc2[nH]1)[C@H]1CC[C@@H](c2ccnc(C(F)(F)F)c2)CC1 (single isomer, unassigned) [Example 39-2, 6-chloro-2-(1-(4-(2-(trifluoromethyl)pyridin-4-yl)cyclohexyl)ethyl)-1H-benzo[d]imidazole]
117 | C[C@H](c1nc2ccc(Cl)cc2[nH]1)[C@H]1CC[C@@H](c2ccnc(C(F)(F)F)c2)CC1 (single isomer, unassigned) [Example 39-3, 6-chloro-2-(1-(4-(2-(trifluoromethyl)pyridin-4-yl)cyclohexyl)ethyl)-1H-benzo[d]imidazole]
459 | C[C@@H](c1nnc2ccccn12)[C@H]1CC[C@@H](c2ccnc3ccc(F)cc32)CC1 [Example 26, 4-((cis)-4-((R)-1-([1,2,4]triazolo[4,3-a]pyridin-3-yl)ethyl)cyclohexyl)-6-fluoroquinoline]
836 | C[C@@H](c1ncc2ccccn12)[C@H]1CC[C@@H](c2ccnc3ccc(F)cc32)CC1 [Example 27, 6-fluoro-4-((cis)-4-((R)-1-(imidazo[1,5-a]pyridin-3-yl)ethyl)cyclohexyl)quinoline]

Reference: patent publication US11337970B2, “Inhibitors of indoleamine 2,3-dioxygenase and methods of their use” (BRISTOL-MYERS SQUIBB COMPANY, priority 2016, dated 2022)
